Patent US8748481B2, “Method for treating gastrointestinal disorder” (Sucampo AG, priority 2004, dated 2014)
Marks after values point to notes of the source that are not given here.

System: subjects with irritable bowel syndrome (IBS)
Assay: IBS QOL questionnaire, 12-week double-blind randomized study (Example 7)
Format: in vivo, human
Design: key to IBS QOL Overall scaled score, Mean / IBS QOL Dysphoria scaled score, Mean / IBS QOL Interference with Activity scaled score, Mean / IBS QOL Body Image scaled score, Mean / IBS QOL Health Worry scaled score, Mean / IBS QOL Food Avoidance scaled score, Mean / IBS QOL Social Reaction scaled score, Mean / IBS QOL Sexual scaled score, Mean / IBS QOL Relationship scaled score, Mean: IBS-QOL scaled score, 0–100
Details: for IBS QOL Body Image scaled score, Mean / IBS QOL Dysphoria scaled score, Mean / IBS QOL Food Avoidance scaled score, Mean / IBS QOL Health Worry scaled score, Mean / IBS QOL Interference with Activity scaled score, Mean / IBS QOL Overall scaled score, Mean / IBS QOL Relationship scaled score, Mean / IBS QOL Sexual scaled score, Mean / IBS QOL Social Reaction scaled score, Mean: Baseline; for IBS QOL Body Image, Mean change from Baseline / IBS QOL Dysphoria, Mean change from Baseline / IBS QOL Food Avoidance, Mean change from Baseline / IBS QOL Health Worry, Mean change from Baseline / IBS QOL Interference with Activity, Mean change from Baseline / IBS QOL Overall, Mean change from Baseline / IBS QOL Relationship, Mean change from Baseline / IBS QOL Sexual, Mean change from Baseline / IBS QOL Social Reaction, Mean change from Baseline: without LOCF
Procedure: A 12-week, double-blind, randomized study was performed to assess the safety and efficacy of oral 16 μg, 32 μg and 48 μg (total daily dose) of compound A to subjects with irritable bowel syndrome (IBS).
The patients answered the IBS QOL questionnaire at baseline, at week 4, Week 12 and at the end of study, and Questionnaire results were scored according to the IBS QOL User's Manual (A Quality of Life Measure for Persons with Irritable Bowel Syndrome (IBS-QOL): User's Manual and Scoring Diskette for United States Version. Seattle, Wash.: University of Washington; 1997). Scaled scores were used for all analyses, and scores were calculated according to the User's Manual as follows: Scaled Score=([Sum of IBS-QOL items−lowest possible score]/Possible raw score range))×100
Changes from baseline at week 4, week 12 and at the End of Study were assessed for the mean overall score and for the mean domain scores (dysphoria, interference with activity, body image, health worry, food avoidance, social reaction, sexual, and relationship).

CCCCC(F)(F)C(=O)CCC1C(O)CC(=O)C1CCCCCCC(=O)O (stereo not shown) [Compound A, 13,14-dihydro-15-keto-16,16-difluoro-PGE1]
Improvement from baseline in IBS-QOL compared among dose groups (16 μg group vs. 32 μg and 48 μg groups, every specific area and QOL overall): greatest improvement
IBS QOL Body Image scaled score, Mean (16 μg group): 41.42
IBS QOL Dysphoria scaled score, Mean (16 μg group): 53.19
IBS QOL Food Avoidance scaled score, Mean (16 μg group): 46.08
IBS QOL Health Worry scaled score, Mean (16 μg group): 37.74
IBS QOL Interference with Activity scaled score, Mean (16 μg group): 65.82
IBS QOL Overall scaled score, Mean (16 μg group): 55.66
IBS QOL Relationship scaled score, Mean (16 μg group): 67.81
IBS QOL Sexual scaled score, Mean (16 μg group): 64.95
IBS QOL Social Reaction scaled score, Mean (16 μg group): 63.97
IBS QOL Body Image, Mean change from Baseline (16 μg/day, End of Study): 20.41**
IBS QOL Dysphoria, Mean change from Baseline (16 μg/day, End of Study): 21.62**
IBS QOL Food Avoidance, Mean change from Baseline (16 μg/day, End of Study): 13.95**
IBS QOL Health Worry, Mean change from Baseline (16 μg/day, End of Study): 21.94**
IBS QOL Interference with Activity, Mean change from Baseline (16 μg/day, End of Study): 11.95**
IBS QOL Overall, Mean change from Baseline (16 μg/day, End of Study): 16.82**
IBS QOL Relationship, Mean change from Baseline (16 μg/day, End of Study): 14.28**
IBS QOL Sexual, Mean change from Baseline (16 μg/day, End of Study): 14.03**
IBS QOL Social Reaction, Mean change from Baseline (16 μg/day, End of Study): 13.78**
IBS QOL Body Image, Mean change from Baseline (16 μg/day, Week 4): 16.39**
IBS QOL Dysphoria, Mean change from Baseline (16 μg/day, Week 4): 17.85**
IBS QOL Food Avoidance, Mean change from Baseline (16 μg/day, Week 4): 13.89**
IBS QOL Health Worry, Mean change from Baseline (16 μg/day, Week 4): 22.41**
IBS QOL Interference with Activity, Mean change from Baseline (16 μg/day, Week 4): 10.87**
IBS QOL Overall, Mean change from Baseline (16 μg/day, Week 4): 14.7**
IBS QOL Relationship, Mean change from Baseline (16 μg/day, Week 4): 10.74**
IBS QOL Sexual, Mean change from Baseline (16 μg/day, Week 4): 13.33**
IBS QOL Social Reaction, Mean change from Baseline (16 μg/day, Week 4): 11.94**
IBS QOL Body Image, Mean change from Baseline (16 μg/day, Week 12): 22.32**
IBS QOL Dysphoria, Mean change from Baseline (16 μg/day, Week 12): 23.51**
IBS QOL Food Avoidance, Mean change from Baseline (16 μg/day, Week 12): 15.28**
IBS QOL Health Worry, Mean change from Baseline (16 μg/day, Week 12): 23.81**
IBS QOL Interference with Activity, Mean change from Baseline (16 μg/day, Week 12): 13.95**
IBS QOL Overall, Mean change from Baseline (16 μg/day, Week 12): 18.54**
IBS QOL Relationship, Mean change from Baseline (16 μg/day, Week 12): 15.47**
IBS QOL Sexual, Mean change from Baseline (16 μg/day, Week 12): 16.67**
IBS QOL Social Reaction, Mean change from Baseline (16 μg/day, Week 12): 14.58**
IBS QOL Body Image scaled score, Mean (32 μg group): 43.37
IBS QOL Dysphoria scaled score, Mean (32 μg group): 59.69
IBS QOL Food Avoidance scaled score, Mean (32 μg group): 52.21
IBS QOL Health Worry scaled score, Mean (32 μg group): 44.38
IBS QOL Interference with Activity scaled score, Mean (32 μg group): 69.82
IBS QOL Overall scaled score, Mean (32 μg group): 60.14
IBS QOL Relationship scaled score, Mean (32 μg group): 70.23
IBS QOL Sexual scaled score, Mean (32 μg group): 68.62
IBS QOL Social Reaction scaled score, Mean (32 μg group): 66.84
IBS QOL Body Image, Mean change from Baseline (32 μg/day, End of Study): 17.47**
IBS QOL Dysphoria, Mean change from Baseline (32 μg/day, End of Study): 14.77**
IBS QOL Food Avoidance, Mean change from Baseline (32 μg/day, End of Study): 10.79**
IBS QOL Health Worry, Mean change from Baseline (32 μg/day, End of Study): 17.61**
IBS QOL Interference with Activity, Mean change from Baseline (32 μg/day, End of Study): 8.2**
IBS QOL Overall, Mean change from Baseline (32 μg/day, End of Study): 12.58**
IBS QOL Relationship, Mean change from Baseline (32 μg/day, End of Study): 10.79**
IBS QOL Sexual, Mean change from Baseline (32 μg/day, End of Study): 10.23**
IBS QOL Social Reaction, Mean change from Baseline (32 μg/day, End of Study): 11.08**
IBS QOL Body Image, Mean change from Baseline (32 μg/day, Week 4): 15.28**
IBS QOL Dysphoria, Mean change from Baseline (32 μg/day, Week 4): 14.58**
IBS QOL Food Avoidance, Mean change from Baseline (32 μg/day, Week 4): 8.33*
IBS QOL Health Worry, Mean change from Baseline (32 μg/day, Week 4): 16.9**
IBS QOL Interference with Activity, Mean change from Baseline (32 μg/day, Week 4): 7.04*
IBS QOL Overall, Mean change from Baseline (32 μg/day, Week 4): 11.25**
IBS QOL Relationship, Mean change from Baseline (32 μg/day, Week 4): 7.64*
IBS QOL Sexual, Mean change from Baseline (32 μg/day, Week 4): 8.68**
IBS QOL Social Reaction, Mean change from Baseline (32 μg/day, Week 4): 9.9**
IBS QOL Body Image, Mean change from Baseline (32 μg/day, Week 12): 17.99**
IBS QOL Dysphoria, Mean change from Baseline (32 μg/day, Week 12): 15.25**
IBS QOL Food Avoidance, Mean change from Baseline (32 μg/day, Week 12): 11.36**
IBS QOL Health Worry, Mean change from Baseline (32 μg/day, Week 12): 19.44**
IBS QOL Interference with Activity, Mean change from Baseline (32 μg/day, Week 12): 9.42**
IBS QOL Overall, Mean change from Baseline (32 μg/day, Week 12): 13.08**
IBS QOL Relationship, Mean change from Baseline (32 μg/day, Week 12): 9.09*
IBS QOL Sexual, Mean change from Baseline (32 μg/day, Week 12): 10.98**
IBS QOL Social Reaction, Mean change from Baseline (32 μg/day, Week 12): 10.8**
IBS QOL Body Image scaled score, Mean (48 μg group): 45.69
IBS QOL Dysphoria scaled score, Mean (48 μg group): 56.81
IBS QOL Food Avoidance scaled score, Mean (48 μg group): 50.37
IBS QOL Health Worry scaled score, Mean (48 μg group): 44.07
IBS QOL Interference with Activity scaled score, Mean (48 μg group): 68.25
IBS QOL Overall scaled score, Mean (48 μg group): 59.85
IBS QOL Relationship scaled score, Mean (48 μg group): 75.18
IBS QOL Sexual scaled score, Mean (48 μg group): 71.94
IBS QOL Social Reaction scaled score, Mean (48 μg group): 66.81
IBS QOL Body Image, Mean change from Baseline (48 μg/day, End of Study): 14.24**
IBS QOL Dysphoria, Mean change from Baseline (48 μg/day, End of Study): 16.28**
IBS QOL Food Avoidance, Mean change from Baseline (48 μg/day, End of Study): 8.33**
IBS QOL Health Worry, Mean change from Baseline (48 μg/day, End of Study): 17.05**
IBS QOL Interference with Activity, Mean change from Baseline (48 μg/day, End of Study): 7.97**
IBS QOL Overall, Mean change from Baseline (48 μg/day, End of Study): 11.54**
IBS QOL Relationship, Mean change from Baseline (48 μg/day, End of Study): 6.01**
IBS QOL Sexual, Mean change from Baseline (48 μg/day, End of Study): 3.49
IBS QOL Social Reaction, Mean change from Baseline (48 μg/day, End of Study): 12.06**
IBS QOL Body Image, Mean change from Baseline (48 μg/day, Week 4): 13.24**
IBS QOL Dysphoria, Mean change from Baseline (48 μg/day, Week 4): 17.28**
IBS QOL Food Avoidance, Mean change from Baseline (48 μg/day, Week 4): 12.01**
IBS QOL Health Worry, Mean change from Baseline (48 μg/day, Week 4): 19.61**
IBS QOL Interference with Activity, Mean change from Baseline (48 μg/day, Week 4): 9.14**
IBS QOL Overall, Mean change from Baseline (48 μg/day, Week 4): 12.43**
IBS QOL Relationship, Mean change from Baseline (48 μg/day, Week 4): 6.87**
IBS QOL Sexual, Mean change from Baseline (48 μg/day, Week 4): 8.46**
IBS QOL Social Reaction, Mean change from Baseline (48 μg/day, Week 4): 8.82**
IBS QOL Body Image, Mean change from Baseline (48 μg/day, Week 12): 17.08**
IBS QOL Dysphoria, Mean change from Baseline (48 μg/day, Week 12): 20.83**
IBS QOL Health Worry, Mean change from Baseline (48 μg/day, Week 12): 23.33**
IBS QOL Interference with Activity, Mean change from Baseline (48 μg/day, Week 12): 10.95**
IBS QOL Overall, Mean change from Baseline (48 μg/day, Week 12): 14.8**
IBS QOL Relationship, Mean change from Baseline (48 μg/day, Week 12): 6.95**
IBS QOL Sexual, Mean change from Baseline (48 μg/day, Week 12): 5
IBS QOL Social Reaction, Mean change from Baseline (48 μg/day, Week 12): 14.17**
IBS-QOL change from baseline vs. zero (all groups (16, 32, 48 μg)): significantly different from Zero
